From paper PMC10945559, “Forgotten Natural Products: Semisynthetic Development of Blasticidin S As an Antibiotic Lead” (ACS Medicinal Chemistry Letters, 2024)
Values after ≈ are worked out from the molar mass of the structure shown. Read-outs that look alike come from different tables or passages of the source.

Experiments:
[1] = in vitro; format: cell-based, human; conditions: human; MRC-5 (lung fibroblast); 24 h; one biological replicate (n = 3); read-out: CC50 for human cells
Protocol: (§1) as a range from biological replicates. Inhibition curves were generated using Prism (GraphPad).
(§2) The IC50 values reported in Table 2 are the average of the two biological replicates ± standard […]
(§3) Cytotoxicity Assay Procedure
(§4) Human lung fibroblast cells, MRC -5 (CCL-171), were cultured at 37℃ with 5% CO2 and were plated at 5000 cells/well in a 96 -well plate. Compounds 1, 2, and 15-22 were initially prepared at concentrations of 5.12 mg/mL in a vehicle of 50% DMSO. Dilutions of the compounds (4 – 512 μg/mL) were then prepared in growth medium containing Dulbecco’s modified Eagle’s medium (DMEM) with high glucose, L -glutamine, and sodium pyruvate supplemented with 10% fetal bovine serum (FBS), 1% non -essential amino acids, and 0.1% gentamicin sulfate, and 25mM HEPES. The vehicle (50% DMSO) was also prepared via the sa me dilution series to serve as a control. Growth media was removed from the cells and replaced with the same volume of each compound dilution. Cells were incubated for 24 h , after which CellTiter 96® AQueous One Solution Reagent was added to each well as recommended by the manufacturer’s protocol (Promega CellTiter 96 AQueous One Solution Cell Proliferation Assay) and further incubated for 4 h. After incubation, absorbance was measured at 490 nm on an Infinite M plex multimode microplate reader with i -control Tecan software. Viability was calculated by subtracting media only absorbance values and normalizing to the vehicle control at each concentration. The presented data is one assay performed in triplicate that is representative of multiple trials. Data for the 256 and 512 μg/mL concentrations were removed from analysis due to vehicle toxicity […]
(§5) CC50 concentrations were determined via the ED50 Plus v1.0 software (https://archive.org/details/ed50v10_zip).
Figure S41. The effect of compounds on cell viability. The lines represent non -linear regression curves, and error bars represent means ± […]
SD (n=3). […]

[2] = test system: S. aureus 8810; assay: Broth microdilution antibacterial assay; format: cell-based, Staphylococcus aureus; conditions: for Selectivity index (CC50/IC50): MRC-5 CC50 / S. aureus IC50; for IC50 / MIC: Staphylococcus aureus, 8810; for IC50: average of two biological replicates ± S.D., read-out: IC50
Protocol: (§6) Antibacterial Assay Procedure
(§7) Broth Microdilution Assays
(§8) Media and solutions were autoclaved or sterile filtered prior to use and manipulations were carried out in a laminar flow hood. Antibacterial testing was performed in polypropylene 96 -well flat bottom plates. The minimal inhibitory concentration of blasticidin S ( 1) hydrochloride, P10 (2), and derivatives 15–22 were assessed against Staphylococcus aureus ΔNorA, S. aureus 8810, methicillin-resistant S. aureus (MRSA) ATCC 43300, Enterococcus faecalis ATCC 29212, vancomycin-resistant Enterococcus, Klebsiella pneumoniae ATCC 29665, Pseudomonas aeruginosa, and Acinetobacter baumannii ATCC 17978 using serial dilutions. Doxycycline (Gold Bio) as a positive control and the vehicle as a negative control. Stock solutions of each compound were prepared at 5.12 mg/mL in 50% DMSO/water and serially diluted in 50% DMSO/water to create master plates. From the master plates, 10 μL of each dilution was applied to test plates using a Bravo automated liquid transfer system (Agilent). Bacteria previously grown overnight (37 °C, 120 – 200 RPM), in LB broth were diluted to an OD600 of 0.0 5 in cation-adjusted Mueller-Hinton broth, grown to an OD600 of ~0.5, and diluted to an OD600 of 0.004 in cation-adjusted Mueller-Hinton broth. These diluted cultures were applied to the test plates (190 μL per test well) resulting in final concentrations of the test compounds of 256–2 μg/mL. Growth controls (wells with inoculated media but no vehicle or test compounds) were included to assess any potential toxicity from the vehicle. The plates were incubated at 37 °C for 16–18 h, except for VRE and E. faecalis, which were incubated at 37 °C for 24 h. Inhibition was determined by measuring the optical density at 600 nm (OD600) with a Cytation 3 plate reader (BioTek). The optical density measurements were normalized to the positive and negative controls and the vehicle and growth controls were compared and found to be indistinguishable, indicating no toxicity from the vehicle used. The MIC was the lowest concentration that inhibited >90% of growth. Two biological replicates were performed in duplicate. MIC values are reported […]
as §1, §2, §3, §4, §5

[3] = test system: methicillin-resistant S. aureus (MRSA) ATCC 43300; assay: Broth microdilution antibacterial assay; format: cell-based, Staphylococcus aureus; conditions: for Selectivity index (CC50/IC50): MRC-5 CC50 / MRSA IC50; for IC50 / MIC: Staphylococcus aureus; for IC50: average of two biological replicates ± S.D., read-out: IC50
Protocol: as §6, §7, §8, §1, §2, §3, §4, §5

[4] = test system: vancomycin-resistant Enterococcus (VRE); assay: Broth microdilution antibacterial assay; format: cell-based; conditions: for MIC / IC50: Enterococcus, VRE; for IC50: average of two biological replicates ± S.D., read-out: IC50; for Selectivity index (CC50/IC50): MRC-5 CC50 / VRE IC50
Protocol: as §6, §7, §8, §1, §2, §3, §4, §5

[5] = test system: Acinetobacter baumannii ATCC 17978; assay: Broth microdilution antibacterial assay; format: cell-based; conditions: for IC50 / MIC: Acinetobacter baumannii, ATCC17978, A. baumannii; for IC50: average of two biological replicates ± S.D., read-out: IC50; for MIC: lowest concentration inhibiting >90% of growth, range from biological replicates, read-out: MIC; for Selectivity index (CC50/IC50): MRC-5 CC50 / A. baumannii IC50
Protocol: as §6, §7, §8, §1, §2, §3, §4, §5

[6] = test system: Pseudomonas aeruginosa; assay: Broth microdilution antibacterial assay; format: cell-based; conditions: for Selectivity index (CC50/IC50): MRC-5 CC50 / P. aeruginosa IC50; for IC50 / MIC: Pseudomonas aeruginosa, P. aeruginosa; for IC50: average of two biological replicates ± S.D., read-out: IC50; for MIC: lowest concentration inhibiting >90% of growth, range from biological replicates, read-out: MIC
Protocol: as §6, §7, §8, §1, §2, §3, §4, §5

[7] = test system: Enterococcus faecalis ATCC 29212; assay: Broth microdilution antibacterial assay; format: cell-based; conditions: for MIC / IC50: Enterococcus faecalis, ATCC29212; for IC50: average of two biological replicates ± S.D. (18: one biological replicate), read-out: IC50; for Selectivity index (CC50/IC50): MRC-5 CC50 / E. faecalis IC50
Protocol: as §6, §7, §8, §1, §2, §3, §4, §5

[8] = test system: Klebsiella pneumoniae ATCC 29665; assay: Broth microdilution antibacterial assay; format: cell-based; conditions: for IC50 / MIC: Klebsiella pneumoniae, ATCC29665, K. pneumoniae; for IC50: average of two biological replicates ± S.D., read-out: IC50; for MIC: lowest concentration inhibiting >90% of growth, range from biological replicates, read-out: MIC; for Selectivity index (CC50/IC50): MRC-5 CC50 / K. pneumoniae IC50
Protocol: as §6, §7, §8, §1, §2, §3, §4, §5

[9] = test system: Staphylococcus aureus ΔNorA; assay: Broth microdilution antibacterial assay; format: cell-based; conditions: for Selectivity index (CC50/IC50): MRC-5 CC50 / S. aureus ΔNorA IC50; for IC50 / MIC: Staphylococcus aureus
Protocol: as §6, §7, §8, §1, §2, §3, §4, §5

[10] = S. aureus, lowest concentration inhibiting >90% of growth, range from biological replicates, read-out: MIC
[11] = average MIC, Table S3, read-out: Average Activity against S. aureus
[12] = MRSA, lowest concentration inhibiting >90% of growth, range from biological replicates, read-out: MIC
[13] = average MIC, Table S3, read-out: Average Activity against MRSA
[14] = average MIC, Table S3, read-out: Average Activity against VRE
[15] = 24 h, lowest concentration inhibiting >90% of growth, range from biological replicates, read-out: MIC
[16] = E. faecalis, 24 h, lowest concentration inhibiting >90% of growth, range from biological replicates, read-out: MIC
[17] = average MIC, Table S3, read-out: Average Activity against E. faecalis

CN(CC[C@H](N)CC(=O)N[C@H]1C=C[C@H](n2ccc(N)nc2=O)O[C@@H]1C(=O)NCCO)C(=N)N [Compound 21]
CC50 at 24 h [1]: 58.1 mg/L (≈ 125 µM) | Selectivity index (CC50/IC50) [2]: 7.1 | IC50 ([2]; S. aureus): 8.1 ± 0.7 mg/L (≈ 17.4 µM) | MIC [2, 10]: 64 mg/L (≈ 137 µM) | MIC [2, 11]: 64 mg/L (≈ 137 µM) | Selectivity index (CC50/IC50) [3]: 4.9 | IC50 ([3]; MRSA): 11.8 ± 0.2 mg/L (≈ 25.3 µM) | MIC [3, 12]: 32 to 64 mg/L (≈ 68.7 to 137 µM) | MIC [3, 13]: 48 mg/L (≈ 103 µM) | MIC [4, 14]: 128 mg/L (≈ 275 µM) | MIC [4, 15]: 128 mg/L (≈ 275 µM) | IC50 [4]: 15.3 ± 3.3 mg/L (≈ 32.9 µM) | Selectivity index (CC50/IC50) [4]: 3.8 | IC50 [5]: 21.2 ± 0.6 mg/L (≈ 45.5 µM) | MIC [5]: 64 to 128 mg/L (≈ 137 to 275 µM) | Selectivity index (CC50/IC50) [5]: 2.7 | Selectivity index (CC50/IC50) [6]: 1.7 | IC50 [6]: 34.1 ± 0.3 mg/L (≈ 73.3 µM) | MIC [6]: 128 mg/L (≈ 275 µM) | MIC [7, 16]: 32 mg/L (≈ 68.7 µM) | IC50 ([7]; E. faecalis): 22.3 ± 4 mg/L (≈ 47.9 µM) | MIC [7, 17]: 32 mg/L (≈ 68.7 µM) | Selectivity index (CC50/IC50) [7]: 2.6 | IC50 [8]: 19.7 ± 0.5 mg/L (≈ 42.3 µM) | MIC [8]: 64 mg/L (≈ 137 µM) | Selectivity index (CC50/IC50) [8]: 3.0 | Selectivity index (CC50/IC50) [9]: 1.6 | IC50 [9]: 35.5 ± 2.5 mg/L (≈ 76.3 µM) | MIC [9]: 256 mg/L (≈ 550 µM)

C#CCNC(=O)[C@H]1O[C@@H](n2ccc(N)nc2=O)C=C[C@@H]1NC(=O)C[C@@H](N)CCN(C)C(=N)N [Compound 19]
CC50 at 24 h [1]: 33.1 mg/L (≈ 72 µM) | Selectivity index (CC50/IC50) [2]: 9.2 | IC50 ([2]; S. aureus): 3.6 ± 0.3 mg/L (≈ 7.83 µM) | MIC [2, 10]: 32 mg/L (≈ 69.6 µM) | MIC [2, 11]: 32 mg/L (≈ 69.6 µM) | Selectivity index (CC50/IC50) [3]: 4.8 | IC50 ([3]; MRSA): 6.9 ± 1.2 mg/L (≈ 15 µM) | MIC [3, 12]: 16 to 32 mg/L (≈ 34.8 to 69.6 µM) | MIC [3, 13]: 24 mg/L (≈ 52.2 µM) | MIC [4, 14]: 64 mg/L (≈ 139 µM) | MIC [4, 15]: 64 mg/L (≈ 139 µM) | IC50 [4]: 21.1 ± 4.8 mg/L (≈ 45.9 µM) | Selectivity index (CC50/IC50) [4]: 1.6 | IC50 [5]: 21.1 ± 3.9 mg/L (≈ 45.9 µM) | MIC [5]: 128 mg/L (≈ 279 µM) | Selectivity index (CC50/IC50) [5]: 1.6 | Selectivity index (CC50/IC50) [6]: 2.1 | IC50 [6]: 16.1 ± 0.9 mg/L (≈ 35 µM) | MIC [6]: 64 mg/L (≈ 139 µM) | MIC [7, 16]: 16 to 32 mg/L (≈ 34.8 to 69.6 µM) | IC50 ([7]; E. faecalis): 7.6 ± 1.5 mg/L (≈ 16.5 µM) | MIC [7, 17]: 16 mg/L (≈ 34.8 µM) | Selectivity index (CC50/IC50) [7]: 4.4 | IC50 [8]: 40.4 ± 6.2 mg/L (≈ 87.9 µM) | MIC [8]: 128 mg/L (≈ 279 µM) | Selectivity index (CC50/IC50) [8]: 0.8 | Selectivity index (CC50/IC50) [9]: 2.0 | IC50 [9]: 16.2 ± 0.9 mg/L (≈ 35.3 µM) | MIC [9]: 64 to 128 mg/L (≈ 139 to 279 µM)
